Experiments:
BalbC mice = experiment: Arachidonic acid mouse ear oedema model; assay type: in vivo; details: 300 μg/ear in acetone, topical; arachidonic acid alone 86%
Method: The arrachidonic mouse ear oedema model is an acute inflammation model based on activation of ecosanoid pathways. The mouse ear oedema model was performed using BalbC mice (25-35 g), of either sex. The ear was treated by the topical application (10 μl) of solvent (acetone 100%) or test drug (300 μg/ear in acetone) or Indomethacin (300 μg/ear in acetone). After one hour, oedema was induced by the topical application of arachidonic acid (10 μl at 0.4 g/ml in acetone). The width of each ear was measured, both before and 60 min after the induction of oedema, using a micrometer screw gauge. Ear oedema was calculated by comparing the ear width before and after induction of oedema and expressed as percentage normal. Animals were killed using CO2, without recovering from sedation.

CD-1 mice = experiment: Methylated bovine serum albumin (mBSA) delayed-type hypersensitivity mouse paw swelling; assay type: in vivo; details: 10 mg/kg i.p.; mBSA challenge alone 107%
Method: CD-1 mice (25-35 gms) were anaesthetised with halothane and immunised intradermal (i.d.) with mBSA/Freunds complete adjuvant containing Mycobacterium butyricum (FCA(B)) emulsion at four sites (62.5 μg/25 μl at each site) on the shaved chest on day 1. The mBSA/FCA(B) is prepared by emulsifying equal volumes of mBSA and FCA(B) solutions (the mBSA solution was first prepared in sterile isotonic saline at a concentration of 5 mg/mL). On days 8 and 9, mice were dosed intraperitoneal (i.p.) with either 1% carboxymethylcellulose (CMC), CycA or a novel compound in 1% CMC. Two hours after the second i.p. dose (day 9), anaesthetised mice were challenged, by injecting mBSA in saline subcutaneous (s.c.) in the dorsal surface of the right hind paw and s.c. in the left hind paw with saline alone (20 μl each injection). 24 hours later, mice were sacrificed by cervical dislocation, and the swelling of each paw was measured in triplicate with a plethysmometer.
Paw swelling (% difference)={mBSA injected paw volume (mls)}−{saline injected paw volume (mls)}×100%
Saline Injected Paw Volume (mls)

Balb/C mice [1] = experiment: Oxazolone contact hypersensitivity (CHS) mouse ear swelling; assay type: in vivo; details: P>0.05
Method: Female Balb/C mice (30-40 gms) were sensitised on day 0 with 20 μl of 2% oxazolone in acetone on each ear (10 μl on the inner and outer aspects of both ears). All mice were challenged on day 5 with 20 μl of 2% oxazolone in acetone only on the right ear; again, 10 μl on both the inner and outer aspects of the ear. Immediately following this, the mice were treated with test compound. The test compound was administered in exactly the same way as the oxazolone, with 10 μl on each side of the right ear. […] For the […] group, acetone was administered. All animals were killed 24 hrs later and the percentage increase in ear swelling was calculated. This was done in two ways. The thickness of the unchallenged left ear and the challenged right ear were measured using a micrometer caliper (μm). The increase in weight of both ears was also measured using a 5 mm biopsy punch (mgs). The percentage increase in oedema was then calculated for both weight and thickness by expressing the difference between the unchallenged left ear and the challenged right ear as a percentage of the left ear control.

Jurkat cells = experiment: Jurkat cell viability (Acridine Orange/Ethidium Bromide); assay type: cell-based
Method: (A) Anti-TCR/CD28-mediated activation of Jurkat cells: Experiments involving anti-TCR/CD28-mediated activation of Jurkat T lymphocytes were carried out on 24-well cell culture plates. The plates were coated with a 1/100 dilution of rabbit anti-mouse IgG in sterile PBS (1×) and incubated overnight at 4OC. Unbound antibody was aspirated and the wells were gently rinsed with warm sterile PBS. The PBS was aspirated and the wells were coated with a 1/100 dilution of anti-TCR antibody (OKT-3) and a 1/200 dilution of anti-CD28 antibody (both antibodies pre-mixed prior to addition to the plates) in sterile PBS. The plates were then incubated for 1-2 hours at 37° C. Unbound antibody was aspirated and the wells were gently rinsed with warm PBS. The PBS was left on the plate until the Jurkat cells were ready to be added to the plate. The Jurkat cells were harvested from the T-75cm2 cell culture flasks and resuspended at a density of 0.5×10^6 cells per ml. The compounds were dissolved at a specified stock concentration (see results section) and diluted to the required concentration by adding the drug to the cell suspension. The cells were then pre-incubated with the compounds or with an equivalent volume of drug vehicle control (DMSO) for 30 minutes prior to adding the cell suspension to the antibody-coated plates. Cyclosporine A (1 μM) was used as a positive control to inhibit IL-2 production from activated T cells and was preincubated with the 6 cells as described above in parallel. The cells were then incubated on the plates with the acti-TCR/CD28 antibodies for 24 hours at 37° C. and 5% CO2 in a humidified atmosphere. After 24 hours, the cell suspension was removed from the plates and the cells were pelleted by centrifugation. The cell culture supernatant was saved and analysed for secreted IL-2 by ELISA. The cell pellet was saved and cell viability was measured using Acridine Orange/Ethidium Bromide cell viability staining solution.
The cell pellet was resuspended in 20 μl of Acridine Orange/Ethidium Bromide staining solution. A portion of this cell suspension was placed on a haemocytometer and analysed under a fluorescence microscope. […] The ratio of viable cells: non-viable cells were calculated for each activation time point/drug treatment.

Balb/C mice [2] = experiment: 5% DSS-induced murine colitis model; assay type: in vivo, mouse; details: for inhibition of DAI in DSS-induced colitis: 5% DSS colitis (FIG. 9)

Row | Structure (SMILES) | ear swelling (increase in ear thickness) (BalbC mice) [%] | mBSA paw swelling (CD-1 mice) [%] | effect on oxazolone mouse ear swelling (Balb/C mice [1]) | cell viability (Jurkat cells) | inhibition of DAI in DSS-induced colitis (Balb/C mice [2]) | effect on DSS-induced weight loss (Balb/C mice [2]; 5% DSS colitis, 30 mg/kg p.o. (FIG. 8))
1 | O[C@H]1c2ccccc2C[C@]1(Cc1ccccc1)C1=Cc2ccccc2C1 (mixture of isomers) [Compound 6, (S,S and RR)2-Benzyl-2,3-dihydro-1H,1′H-2,2′-biinden-1-ol] | 50 | 71 | no significant effect | without affecting cell viability | significant (P<0.01) inhibition | ameliorated
2 | O[C@@H]1c2ccccc2C[C@]1(Cc1ccccc1)C1=Cc2ccccc2C1 (mixture of isomers) [Compound 5, (R,S and SR)2-Benzyl-2,3-dihydro-1H,1′H-2,2′-biinden-1-ol] | 62 | 72 | no significant effect | without affecting cell viability | only 6 caused a significant | 

From US20150141523A1, “COMPOUNDS FOR USE IN THE TREATMENT OF AUTOIMMUNE INFLAMMATORY DISEASE” (Venantius Limited, priority 2012, published 2015)
